Test results from patent US20150259371A1, “METHODS AND COMPOUNDS FOR INHIBITING GLYCOSYLTRANSFERASES” (SIMON FRASER UNIVERSITY, priority 2010, published 2015).
“Also recorded” adds a separate entry of the source.

Key:
[1] = system: N-glycosylation in COS-7 cells; experiment: Lectin blots of glycans in treated COS-7 cells; format: cell-based, African green monkey; conditions: COS-7, 0-1000 μM, 24 h
Procedure: Westernlectin blots: Samples were run on 10% SDS polyacrylamide gels and transferred onto nitrocellulose membranes (Biorad). Membranes were blocked for 1 h in PBS containing 0.1% Tween-20 (PBS-T) containing 1% (unless otherwise stated) bovine serum albumin (BSA), and probed with the appropriate primary antibody or lectin in 1% BSA in PBS-T overnight at 4° C. Blots were washed for 1 hr with PBS-T, and blocked for a further 30 min with 1% BSA in PBS-T at room temperature. They were then probed with the appropriate horseradish peroxidise (HRP)-conjugated secondary antibodyprobe in 1% BSA in PBS-T at room temperature for 1 h, followed by washing in PBS-T for 1 h. […]
Antibodieslectins: O-GlcNAc levels were assessed primarily using CTD110.6 (Covance), but RL2 (Abcam) and HGAC85 (Abcam) were also tested. […] OGA levels were assessed using a polyclonal anti-OGA antibody which was a kind gift from Dr. Gerald Hart and OGT levels using H-300 (Santa Cruz Biotechnology). nup62 was probed using mAb 414 (Covance). […]
To assess whether cell surface glycosylation could be affected through changes in UDP-GlcNAc availability or inhibition of GlcNAc transferases within the secretory pathway, we treated COS-7 cells with a range of Ac-5SGlcNAc concentrations and evaluated the effect on various glycans using lectin blots. […]

[2] = system: O-GlcNAc levels in different cell lines (COS-7, CHO, SK-N-SH, HepG2, PC12, mouse hybridoma, EMEG32-/-); experiment: Western blot of O-GlcNAc levels in various cell lines; format: cell-based; conditions: 50 μM (100 μM for PC12), 24 h; listed as Ac-5SGlcNAc
Procedure: FIG. 2L. Western blots of cell lysates from different cell lines following no (C), Ac-GlcNAc (G) or Ac-5SGlcNAc (5SG) administration at 50 μM (or 100 μM for PC12 cells) for 24 h. Upper panel, probed with anti-O-GlcNAc antibody (CTD110.6); lower panel, anti-actin antibody. Cell lines used: COS-7 (African green monkey kidney cell line), CHO (Chinese hamster ovary cell line), SK-N-SH (human neuroblastoma cell line), HepG2 (human liver carcinoma cell line), PC12 (rat adrenal medulla pheochromocytoma cell line, which terminally differentiate upon nerve growth factor treatment), mouse hybridoma cell line and EMEG32^−/− (mouse embryonic fibroblasts deficient in glucosamine-6-phosphate acetyltransferase).
Cell culture: Cells were grown in an incubator at 37° C. and 5% CO2 atmosphere. Media and serum were purchased from Invitrogen. COS-7 cells were cultured in Dulbecco's modified Eagle's medium (DMEM) with 5% fetal bovine serum (FBS), and were typically 80-100% confluent prior to experimentation. HepG2, SK-N-SH, and EMEG32^−/− cells were cultured in Dulbecco's modified Eagle's medium (DMEM) with 5% fetal bovine serum (FBS), CHO cells in DMEMF-12 with 5% FBS and PC12 cells in DMEM with 5% FBS and 5% horse serum. Prior to experimentation, PC12 cells were plated at a density of 3-4×10^5 cells10 cm plate, which had been pre-treated with 5 μgcm^2 rat tail collagen (BD Biosciences). […]

CC(=O)NC1C(OC(C)=O)SC(COC(C)=O)C(OC(C)=O)C1OC(C)=O [Compound 9, N-Acetyl-1,3,4,6-tetra-O-acetyl-α-D-5-thio-glucosamine]
glycosylation by lectin blots (ConA, GNA, PHA-L, SNA, MAA) [1]: All lectins tested showed no change in glycosylation | O-GlcNAc levels in the cell lines tested [2]: Various other cell lines showed equivalent responses; also recorded: near complete loss of O-GlcNAc in the cell lines tested
